Measurements: patent US20220089592A1, “IMIDAZO[1,2-A]PYRIDINYL DERIVATIVES AS IRAK4 INHIBITORS” (priority 2019, published 2022)

Target: T1, IRAK4 (Homo sapiens, UniProt Q9NWZ3)
T1 sequence (Q9NWZ3 1-460): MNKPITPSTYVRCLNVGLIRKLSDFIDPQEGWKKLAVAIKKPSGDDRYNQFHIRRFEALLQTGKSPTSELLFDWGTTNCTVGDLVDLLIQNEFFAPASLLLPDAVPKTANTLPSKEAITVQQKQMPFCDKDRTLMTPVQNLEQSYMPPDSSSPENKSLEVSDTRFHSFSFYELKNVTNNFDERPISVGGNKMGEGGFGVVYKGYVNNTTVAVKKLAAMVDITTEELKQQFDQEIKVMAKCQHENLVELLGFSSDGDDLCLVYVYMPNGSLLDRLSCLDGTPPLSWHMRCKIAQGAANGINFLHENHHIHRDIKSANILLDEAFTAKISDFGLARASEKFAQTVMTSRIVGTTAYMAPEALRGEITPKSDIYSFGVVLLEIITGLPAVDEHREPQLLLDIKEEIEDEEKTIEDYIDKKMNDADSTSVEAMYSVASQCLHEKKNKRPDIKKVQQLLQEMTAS
Test: 2-hour 10 μM ATP Biochemical Assay (MesoScale Detection format; IRAK4 phosphorylation of biotin labeled IRAK1 activation loop peptide)
Details: IRAK4 MSD BIOCHEMICAL (10 μM ATP) IC50 (μM), 1 nM IRAK4, 2 hours
Experimental: The 2-hour 10 μM ATP Biochemical Assay employs a MesoScale Detection (MSD) format.
The activity is quenched with 11 μl of 70 mM EDTA, pH 8.
To detect the phosphorylated biotinylated peptide substrate, 30 μl of the quenched reaction mixture is added to equivalent wells of a 384 well streptavidin coated MesoScale plate (Meso Scale Discovery #L21SA-1). After a 1 hour incubation of the plate for 1 hour at room temperature with gentle mixing, the plate wells are washed 3 times with 50 mM Tris, pH 7.5, 150 mM NaCl, 0.02% Tween-20.
A 25 μl volume of 1:500 anti-P-Threonine Rabbit polyclonal Antibody plus 1:500 Goat-anti-Rabbit Sulfo Tag Antibody (Meso Scale Discovery R32AB-1) in 50 mM Tris, pH 7.5, 150 mM NaCl, 0.02% Tween-20 plus 2% BSA is then added to each well. After a 1-hour incubation of the plate for 1 hour at room temperature with gentle mixing, the plate wells are washed, 3 times with 50 mM Tris, pH 7.5, 150 mM NaCl, 0.02% Tween-20. A 40 μl volume of 2×MSD Read Buffer (Meso Scale Discovery R92TC-1) is added to each well, and the plate is read immediately in an MSD Plate Reader (Meso Scale Discovery).

Row | IC50 | Structure (SMILES)
1 | 0.028 µM | CCOc1cc2nc(C3CC3)cn2cc1NC(=O)c1cncc(C(F)(F)F)n1 [Example 120, N-(2-cyclopropyl-7-ethoxyimidazo[1,2-a]pyridin-6-yl)-6-(trifluoromethyl)pyrazine-2-carboxamide]
2 | 2.21 µM | CCOc1cc2nc(CN3CCOCC3)cn2cc1NC(=O)c1cccc(C(F)F)n1 [Example 121, 6-(difluoromethyl)-N-(7-ethoxy-2-(morpholinomethyl)imidazo[1,2-a]pyridin-6-yl)picolinamide]
3 | 0.35 µM | CCOc1cc2nc(C(=O)N3CCOCC3)cn2cc1NC(=O)c1cccc(C(F)F)n1 [Example 126, 6-(difluoromethyl)-N-(7-ethoxy-2-(morpholine-4-carbonyl)imidazo[1,2-a]pyridin-6-yl)picolinamide]
4 | 0.001 µM | CCOc1cc2nc(C34CC(C(C)(C)O)(C3)C4)cn2cc1NC(=O)c1cccc(C(F)F)n1 [Example 129, 6-(difluoromethyl)-N-(7-ethoxy-2-(3-(2-hydroxypropan-2-yl)bicyclo[1.1.1]pentan-1-yl)imidazo[1,2-a]pyridin-6-yl)picolinamide]
5 | 0.018 µM | CCOc1cc2nc(C3CC3)cn2cc1NC(=O)c1cccc(C2(O)CCC2)n1 [Example 132, N-(2-cyclopropyl-7-ethoxyimidazo[1,2-a]pyridin-6-yl)-6-(1-hydroxycyclobutyl)picolinamide]
6 | 0.023 µM | CN(C)CCOc1cc2nc(C3CCOCC3)cn2cc1NC(=O)c1cccc(C(F)F)n1 [Example 148, 6-(difluoromethyl)-N-(7-(2-(dimethylamino)ethoxy)-2-(tetrahydro-2H-pyran-4-yl)imidazo[1,2-a]pyridin-6-yl)picolinamide]
7 | 0.22 µM | CCOc1cc2nc(CC3CCOC3)cn2cc1NC(=O)c1nc(C)co1 (stereo not drawn) [Example 154, N-(7-ethoxy-2-((tetrahydrofuran-3-yl)methyl)imidazo[1,2-a]pyridin-6-yl)-4-methyloxazole-2-carboxamide]
8 | 2.3 µM | CCOc1cc2nc(CC3CCOC3)cn2cc1NC(=O)c1cn(C)cn1 (stereo not drawn) [Example 157, N-(7-ethoxy-2-((tetrahydrofuran-3-yl)methyl)imidazo[1,2-a]pyridin-6-yl)-1-methyl-1H-imidazole-4-carboxamide]
9 | 2.9 µM | CCOc1cc2nc(CC3CCOC3)cn2cc1NC(=O)c1nc(C)no1 (stereo not drawn) [Example 158, N-(7-ethoxy-2-((tetrahydrofuran-3-yl)methyl)imidazo[1,2-a]pyridin-6-yl)-3-methyl-1,2,4-oxadiazole-5-carboxamide]
10 | 0.4 µM | CC1(COc2cc3nc(C4CCOCC4)cn3cc2NC(=O)c2cnn(C(F)F)c2)COC1 [Example 161, 1-(difluoromethyl)-N-(7-((3-methyloxetan-3-yl)methoxy)-2-(tetrahydro-2H-pyran-4-yl)imidazo[1,2-a]pyridin-6-yl)-1H-pyrazole-4-carboxamide]
11 | 0.37 µM | O=C(Nc1cn2cc(C3CCOCC3)nc2cn1)c1cnn(C(F)F)c1 [Example 162, 1-(difluoromethyl)-N-(2-(tetrahydro-2H-pyran-4-yl)imidazo[1,2-a]pyrazin-6-yl)-1H-pyrazole-4-carboxamide]
12 | 0.001 µM | CC(C)Oc1cc2nc(C3CCOCC3)cn2cc1NC(=O)c1cccc(C(F)F)n1 [Example 167, 6-(difluoromethyl)-N-(7-isopropoxy-2-(tetrahydro-2H-pyran-4-yl)imidazo[1,2-a]pyridin-6-yl)picolinamide]
13 | 0.001 µM | O=C(Nc1cn2cc(C3CCOCC3)nc2cc1OC1CCCC1)c1cccc(C(F)F)n1 [Example 175, N-(7-(cyclopentyloxy)-2-(tetrahydro-2H-pyran-4-yl)imidazo[1,2-a]pyridin-6-yl)-6-(difluoromethyl)picolinamide]
14 | 0.021 µM | CCOc1cc2nc(C3CCOCC3)cn2cc1NC(=O)c1ccn(C(C)(C)C)n1 [Example 207, 1-(tert-butyl)-N-(7-ethoxy-2-(tetrahydro-2H-pyran-4-yl)imidazo[1,2-a]pyridin-6-yl)-1H-pyrazole-3-carboxamide]
15 | 0.022 µM | CCOc1cc2nc(C3CCOCC3)cn2cc1NC(=O)c1ccccc1F [Example 212, N-(7-ethoxy-2-(tetrahydro-2H-pyran-4-yl)imidazo[1,2-a]pyridin-6-yl)-2-fluorobenzamide]
16 | 0.035 µM | CCOc1cc2nc(C3CCOCC3)cn2cc1NC(=O)c1ccnc(OC)n1 [Example 226, N-(7-ethoxy-2-(tetrahydro-2H-pyran-4-yl)imidazo[1,2-a]pyridin-6-yl)-2-methoxypyrimidine-4-carboxamide]
17 | 0.025 µM | CCOc1cc2nc(C3CCOCC3)cn2cc1NC(=O)c1cccc(C)c1 [Example 229, N-(7-ethoxy-2-(tetrahydro-2H-pyran-4-yl)imidazo[1,2-a]pyridin-6-yl)-3-methylbenzamide]
18 | 0.002 µM | CCOc1cc2nc(C(C)(C)C#N)cn2cc1NC(=O)c1cccc(C(F)CF)n1 (stereo not drawn) [Example 245, N-(2-(2-cyanopropan-2-yl)-7-ethoxyimidazo[1,2-a]pyridin-6-yl)-6-(1,2-difluoroethyl)picolinamide]
19 | 0.003 µM | CCOc1cc2nc(C3CN(CC(F)F)C3)cn2cc1NC(=O)c1ccn(CC(F)F)n1 [Example 291, 1-(2,2-difluoroethyl)-N-(2-(1-(2,2-difluoroethyl)azetidin-3-yl)-7-ethoxyimidazo[1,2-a]pyridin-6-yl)-1H-pyrazole-3-carboxamide]
20 | 0.031 µM | O=C(Nc1cn2cc(C3CCOCC3)nc2cc1F)c1cccc(C(F)F)n1 [Example 293, 6-(difluoromethyl)-N-(7-fluoro-2-(tetrahydro-2H-pyran-4-yl)imidazo[1,2-a]pyridin-6-yl)picolinamide]
21 | 0.026 µM | COc1cc(NC(=O)c2csc(C)n2)cn2cc(C3CCOCC3)nc12 [Example 305, N-(8-methoxy-2-(tetrahydro-2H-pyran-4-yl)imidazo[1,2-a]pyridin-6-yl)-2-methylthiazole-4-carboxamide]
22 | 0.029 µM | CCOc1cc2nc(C3CCOCC3)cn2cc1NC(=O)c1cccc(OCC(F)(F)F)n1 [Example 363, N-(7-ethoxy-2-(tetrahydro-2H-pyran-4-yl)imidazo[1,2-a]pyridin-6-yl)-6-(2,2,2-trifluoroethoxy)picolinamide]
23 | 0.011 µM | Cc1cc(NC(=O)c2cccc(C(F)F)n2)cn2cc(C3CCOCC3)nc12 [Example 410, 6-(difluoromethyl)-N-(8-methyl-2-(tetrahydro-2H-pyran-4-yl)imidazo[1,2-a]pyridin-6-yl)picolinamide 2,2,2-trifluoroacetate]
24 | 0.003 µM | COc1cc(NC(=O)c2cccc(C(F)F)n2)cn2cc(CC3CCOC3)nc12 (stereo not drawn) [Example 411, 6-(difluoromethyl)-N-(8-methoxy-2-((tetrahydrofuran-3-yl)methyl)imidazo[1,2-a]pyridin-6-yl)picolinamide]
25 | 0.037 µM | COc1cc(NC(=O)c2ccn(C)n2)cn2cc(C3CCOCC3)nc12 [Example 412, N-(8-methoxy-2-(tetrahydro-2H-pyran-4-yl)imidazo[1,2-a]pyridin-6-yl)-1-methyl-1H-pyrazole-3-carboxamide 2,2,2-trifluoroacetate]
26 | 0.003 µM | COc1nc(NC(=O)c2cccc(C(F)F)n2)cn2cc(C3CCOCC3)nc12 [Example 450, 6-(difluoromethyl)-N-(8-methoxy-2-(tetrahydro-2H-pyran-4-yl)imidazo[1,2-a]pyrazin-6-yl)picolinamide]
27 | 0.031 µM | COc1nc(NC(=O)c2ccn(CC(F)F)n2)cn2cc(C3CCOCC3)nc12 [Example 452, 1-(2,2-difluoroethyl)-N-(8-methoxy-2-(tetrahydro-2H-pyran-4-yl)imidazo[1,2-a]pyrazin-6-yl)-1H-pyrazole-3-carboxamide]
28 | 0.005 µM | COc1nc(NC(=O)c2cccc3c2OCC3)cn2cc(C3CCOCC3)nc12 [Example 453, N-(8-methoxy-2-(tetrahydro-2H-pyran-4-yl)imidazo[1,2-a]pyrazin-6-yl)-2,3-dihydrobenzofuran-7-carboxamide]
29 | 0.004 µM | COc1cc(NC(=O)c2cccc(C(F)F)n2)cn2cc(CC3CCOCC3)nc12 [Example 506, 6-(difluoromethyl)-N-(8-methoxy-2-((tetrahydro-2H-pyran-4-yl)methyl)imidazo[1,2-a]pyridin-6-yl)picolinamide]

Row | Structure (SMILES) | IC50
30 | O=C(Nc1cn2cc(C3CCOCC3)nc2cc1OC1CCC1)c1cccc(C(F)F)n1 [Example 176, N-(7-cyclobutoxy-2-(tetrahydro-2H-pyran-4-yl)imidazo[1,2-a]pyridin-6-yl)-6-(difluoromethyl)picolinamide] | 0.001 µM
